This note sets out measurements from PubChem BioAssay AID256 (DTP/NCI, 2004).

SMILES strings stand for the structures. Values joined by “and” are separate entries in the source; they are usually repeats but may differ in a detail not shown here. Equal entries are not always repeated. Toxic doses and inconclusive results are not listed.

For this assay, the system named is CD2F1 mice, L1210 leukemia ip, survival T/C. As to the kind of experiment: NCI In Vivo Anticancer Drug Screen. Data for tumor model L1210 Leukemia (intraperitoneal) in CD2F1 (CDF1) mice. Particulars: higher = longer survival. In outline: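 Antitumor effect is scored in animals hosting a serially transplanted tumor. Values compare compound-dosed animals against vehicle-only controls as a simple quotient.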

Where [1] appears, read: endpoint: mean survival time, dose: 100.0 mg/kg/injection, schedule: Q04DX003 (ip), vehicle: saline with Tween-80.
[2] abbreviates: endpoint: mean survival time, dose: 100.0 mg/kg/injection, schedule: Q01DX001 (ip), vehicle: saline.
Where [3] appears, read: endpoint: mean survival time, dose: 200.0 mg/kg/injection, schedule: Q01DX001 (ip), vehicle: saline.
[4] abbreviates: endpoint: mean survival time, dose: 400.0 mg/kg/injection, schedule: Q01DX001 (ip), vehicle: saline.
[5] abbreviates: endpoint: mean survival time, dose: 12.5 mg/kg/injection, schedule: Q01DX009 (ip), vehicle: saline with Tween-80.
Setting [6] is: endpoint: mean survival time, dose: 25.0 mg/kg/injection, schedule: Q01DX009 (ip), vehicle: saline with Tween-80.
Setting [7] is: endpoint: mean survival time, dose: 50.0 mg/kg/injection, schedule: Q01DX009 (ip), vehicle: saline with Tween-80.
The mark [8] stands for this setting: endpoint: mean survival time, dose: 100.0 mg/kg/injection, schedule: Q01DX009 (ip), vehicle: saline with Tween-80.
Where [9] appears, read: endpoint: mean survival time, dose: 200.0 mg/kg/injection, schedule: Q01DX009 (ip), vehicle: saline with Tween-80.
The mark [10] stands for this setting: endpoint: mean survival time, dose: 400.0 mg/kg/injection, schedule: Q01DX009 (ip), vehicle: saline with Tween-80.
[11] abbreviates: endpoint: mean survival time, dose: 200.0 mg/kg/injection, schedule: Q04DX003 (ip), vehicle: saline with Tween-80.
Setting [12] is: endpoint: mean survival time, dose: 400.0 mg/kg/injection, schedule: Q04DX003 (ip), vehicle: saline with Tween-80.
Setting [13] is: endpoint: mean survival time, dose: 100.0 mg/kg/injection, schedule: Q01DX001 (ip), vehicle: saline with Tween-80.

In the case of `CC(=O)OC1(/N=[N+](/C)[O-])CCCC1`, the T/C (endpoint: mean survival time, dose: 50.0 mg/kg/injection, schedule: Q04DX003 (ip), vehicle: saline with Tween-80) was 167 % of control and the T/C under setting [1] is 95 % of control.

On to `Nc1nc(Br)c(Br)nc1N`, for which the T/C is, setting by setting: (endpoint: mean survival time, dose: 100.0 mg/kg/injection, schedule: Q01DX009 (ip), vehicle: other) 92 % of control; (endpoint: mean survival time, dose: 200.0 mg/kg/injection, schedule: Q01DX009 (ip), vehicle: other) 103 % of control; (endpoint: mean survival time, dose: 400.0 mg/kg/injection, schedule: Q01DX009 (ip), vehicle: other) 95 % of control.

`CCCCCCCCOC(=O)Nc1ccc(S(=O)(=O)N(CCC)CCC)cc1`: the T/C under setting [2] is 96 % of control, the T/C under setting [3] was 92 % of control and the T/C under setting [4] was 88 % of control.

`O=C1NC(=O)/C(=C/C=C/c2ccccc2)S1`: the T/C under setting [5] is 94 % of control and 101 % of control; the T/C under setting [6] was 95 % of control and 109 % of control; the T/C under setting [7] is 97 % of control and 101 % of control; the T/C under setting [8] is 98 % of control and 101 % of control; the T/C under setting [9] is 95 % of control and 103 % of control; the T/C under setting [10] is 104 % of control.

`O=C(O)COc1cc(Cl)c(Cl)cc1Cl` (tested in a mixture with another compound): the T/C (endpoint: mean survival time, dose: 100.0 mg/kg/injection, schedule: Q04DX002 (ip), vehicle: saline with Tween-80) is 96 % of control and the T/C (endpoint: mean survival time, dose: 200.0 mg/kg/injection, schedule: Q04DX002 (ip), vehicle: saline with Tween-80) was 114 % of control.

As for `O=c1[nH]cnc2nc(C3OC(CO)C(O)C3O)[nH]c12` (stereo not given), the T/C reads like this: (endpoint: median survival time, dose: 4.5 mg/kg/injection, schedule: Q01DX005 (ip), vehicle: distilled water + Tween-80) 102 % of control; (endpoint: median survival time, dose: 9.0 mg/kg/injection, schedule: Q01DX005 (ip), vehicle: distilled water + Tween-80) 106 % of control; (endpoint: median survival time, dose: 18.0 mg/kg/injection, schedule: Q01DX005 (ip), vehicle: distilled water + Tween-80) 98 % of control; (endpoint: median survival time, dose: 36.0 mg/kg/injection, schedule: Q01DX005 (ip), vehicle: distilled water + Tween-80) 100 % of control; (endpoint: median survival time, dose: 72.0 mg/kg/injection, schedule: Q01DX005 (ip), vehicle: distilled water + Tween-80) 107 % of control.

On to `Cc1ccc(NC(=O)OCCOc2ccc([N+](=O)[O-])cc2)cc1C`, for which the T/C is 108 % of control under setting [7], 92 % of control under setting [8] and 92 % of control under setting [9].

Regarding `CC(=O)OCc1ccc(Cl)cc1`, the T/C by setting is: under setting [1], 94 % of control; under setting [11], 96 % of control; under setting [12], 96 % of control.

On to `CCOC(=O)c1c2cccccc-2c(C(=O)OCC)c1N`, for which the T/C under setting [1] is 95 % of control, the T/C under setting [11] was 109 % of control and the T/C under setting [12] was 92 % of control.

Turning to `Cc1cc(N)c(O)cc1C`, the T/C (endpoint: mean survival time, dose: 100.0 mg/kg/injection, schedule: Q01DX009 (ip), vehicle: saline) was 96 % of control.

`C=CCNc1n[nH]c(=S)s1`: the T/C is, setting by setting: under setting [1], 100 % of control; under setting [11], 96 % of control; under setting [12], 105 % of control.

For the compound `O=C(CC1(Cl)C(F)(F)C(F)(F)C1(F)F)c1ccccc1`, the T/C under setting [13] is 95 % of control.

For the compound `C(#[C][Ge]([C]#Cc1ccccc1)([C]#Cc1ccccc1)[C]#Cc1ccccc1)c1ccccc1`, the T/C by setting is: under setting [6], 91 % of control; under setting [7], 88 % of control; under setting [8], 96 % of control; under setting [9], 90 % of control.

With `O=[N+]([O-])c1ccc(Cl)c(CNc2ncnc3c2ncn3C2CCCCO2)c1` (stereo not given), the T/C reads like this: (endpoint: mean survival time, dose: 100.0 mg/kg/injection, schedule: Q01DX009 (ip), vehicle: acetone) 95 % of control; (endpoint: mean survival time, dose: 200.0 mg/kg/injection, schedule: Q01DX009 (ip), vehicle: acetone) 97 % of control; (endpoint: mean survival time, dose: 400.0 mg/kg/injection, schedule: Q01DX009 (ip), vehicle: acetone) 93 % of control.

Regarding `CC1OC2CC(O)C1(O)C1=C2C(O)=C(C(N)=O)C(=N)C1=O` (stereo not given), the T/C reads like this: (endpoint: median survival time, dose: 0.31 mg/kg/injection, schedule: Q01DX005 (ip), vehicle: saline) 101 % of control; (endpoint: median survival time, dose: 0.62 mg/kg/injection, schedule: Q01DX005 (ip), vehicle: saline) 101 % of control; (endpoint: median survival time, dose: 1.25 mg/kg/injection, schedule: Q01DX005 (ip), vehicle: saline) 101 % of control; (endpoint: median survival time, dose: 2.5 mg/kg/injection, schedule: Q01DX005 (ip), vehicle: saline) 98 % of control; (endpoint: median survival time, dose: 5.0 mg/kg/injection, schedule: Q01DX005 (ip), vehicle: saline) 108 % of control.

In the case of `COc1ccc([Se][Se]c2ccc(OC)cc2NC(C)=O)c(NC(C)=O)c1`, the T/C is 97 % of control under setting [7]; 101 % of control under setting [8]; 89 % of control under setting [1]; 105 % of control under setting [9]; 87 % of control under setting [11].

For `O=C1/C(=C\c2ccccc2)Oc2cc(O)c(O)cc21`, the T/C by setting is: (endpoint: mean survival time, dose: 25.0 mg/kg/injection, schedule: Q01DX001 (ip), vehicle: saline with Tween-80) 100 % of control; (endpoint: mean survival time, dose: 50.0 mg/kg/injection, schedule: Q01DX001 (ip), vehicle: saline with Tween-80) 104 % of control; under setting [13], 100 % of control.

On to `COc1ccc2c(c1)C1(C)CCCC(C#N)=C1CC2` (stereo not given), for which the T/C under setting [2] was 96 % of control, the T/C under setting [3] is 96 % of control and the T/C under setting [4] is 92 % of control.

Turning to `OCC1OC(O)C(O)C(O)C1O` (stereo not given), the T/C (endpoint: mean survival time, dose: 100.0 mg/kg/injection, schedule: Q04DX003 (ip), vehicle: saline) was 103 % of control; the T/C (endpoint: mean survival time, dose: 200.0 mg/kg/injection, schedule: Q04DX003 (ip), vehicle: saline) is 98 % of control; the T/C (endpoint: mean survival time, dose: 400.0 mg/kg/injection, schedule: Q04DX003 (ip), vehicle: saline) is 98 % of control.

With `C1CCC(C2CCCC[N-]2)[N-]C1.O=C(O)C1CCC[N-]1.[Cl][Pt]` (stereo not given), the T/C was 103 % of control (endpoint: median survival time, dose: 10.0 mg/kg/injection, schedule: Q04DX003 (ip), vehicle: saline); 101 % of control (endpoint: median survival time, dose: 20.0 mg/kg/injection, schedule: Q04DX003 (ip), vehicle: saline); 98 % of control (endpoint: median survival time, dose: 40.0 mg/kg/injection, schedule: Q04DX003 (ip), vehicle: saline); 98 % of control and 104 % of control (endpoint: median survival time, dose: 80.0 mg/kg/injection, schedule: Q04DX003 (ip), vehicle: saline); 104 % of control (endpoint: median survival time, dose: 160.0 mg/kg/injection, schedule: Q04DX003 (ip), vehicle: saline).

Take `CN(C)S(=O)(=O)c1cc(Cl)ccc1NN`: the T/C under setting [1] is 98 % of control, the T/C under setting [11] was 104 % of control and the T/C under setting [12] was 104 % of control.

As for `COC(=O)c1ccccc1-c1c(C)cccc1[N+](=O)[O-]`, the T/C (endpoint: mean survival time, dose: 100.0 mg/kg/injection, schedule: Q01DX001 (ip), vehicle: Klucel (hydroxypropylcellulose) (HPC)) was 98 % of control; the T/C (endpoint: mean survival time, dose: 200.0 mg/kg/injection, schedule: Q01DX001 (ip), vehicle: Klucel (hydroxypropylcellulose) (HPC)) is 87 % of control; the T/C (endpoint: mean survival time, dose: 400.0 mg/kg/injection, schedule: Q01DX001 (ip), vehicle: Klucel (hydroxypropylcellulose) (HPC)) is 89 % of control.

Consider `CC(CCOP(=O)(N(CCCl)CCCl)N1CC1)OCc1ccccc1` (stereo not given), for which the T/C runs as follows: (endpoint: mean survival time, dose: 22.0 mg/kg/injection, schedule: Q01DX001 (ip), vehicle: other) 108 % of control; (endpoint: mean survival time, dose: 33.0 mg/kg/injection, schedule: Q01DX001 (ip), vehicle: other) 111 % of control; (endpoint: mean survival time, dose: 50.0 mg/kg/injection, schedule: Q01DX001 (ip), vehicle: other) 153 % of control.

On to `CCOC(=O)c1cnc2c(ccc3ncccc32)c1NCCCN(CC)CC`, for which the T/C reads like this: (endpoint: mean survival time, dose: 12.5 mg/kg/injection, schedule: Q01DX009 (ip), vehicle: Klucel (hydroxypropylcellulose) (HPC)) 93 % of control; (endpoint: mean survival time, dose: 25.0 mg/kg/injection, schedule: Q01DX009 (ip), vehicle: Klucel (hydroxypropylcellulose) (HPC)) 97 % of control; (endpoint: mean survival time, dose: 50.0 mg/kg/injection, schedule: Q01DX009 (ip), vehicle: Klucel (hydroxypropylcellulose) (HPC)) 97 % of control.

On to `O=C(NC1CCCCC1)OCc1c(COC(=O)NC2CCCCC2)c(-c2ccc(Cl)c(Cl)c2)n2c1CCC2`, for which the T/C reads like this: under setting [5], 119 % of control and 112 % of control; under setting [6], 112 % of control; under setting [8], 122 % of control; under setting [9], 151 % of control and 157 % of control; under setting [10], 121 % of control and 97 % of control.

As to `COc1ccc(C(CO)CC(=O)NCCN(C)C)cc1` (stereo not given), the T/C reads like this: (endpoint: mean survival time, dose: 100.0 mg/kg/injection, schedule: Q04DX002 (ip), vehicle: saline) 100 % of control; (endpoint: mean survival time, dose: 200.0 mg/kg/injection, schedule: Q04DX002 (ip), vehicle: saline) 107 % of control.
